Measured values from article PMC9919490, “Synthesis and Biological Evaluation of Novel Dispiro-Indolinones with Anticancer Activity” (Molecules, 2023).

Assays:
Acute toxicity = format: in vivo; conditions: for body weight (M ± m): i.p. 2500 mg/kg
Experimental: Acute toxicity tests were performed on mature outbred mice (male and female). The design of the experiment is specified in Table S3 (Supplementary Materials).
To select the doses, the pilot experiments were carried out on a minimum number of animals.
The surviving animals were subjected to euthanasia and necropsy on the 29th day of the experiment to study the effects of the test agent on their internal organs.
Outbred mice (males and females) were used in the experiments. Intraperitoneal injections were applied in the posterior third of the abdomen, slightly departing from the midline. The mice were injected with 1 mL of the solution. […] The solution was prepared ex tempore. Doses were calculated for each animal separately, according to body weight data.
The group arithmetic mean (M) and standard error of the mean (m) were calculated. Statistical significance of the differences was assessed using Student’s t-test. The differences between these groups were considered significant at p < 0.05.

HCT116 tumor xenografts = assay: HCT116 xenograft model
Experimental: Twenty-three conventional, immunodeficient female mice (BALB/c nude, 20–23 g) were housed in RAMS and used as donors and recipients for HCT116 cells.
The first implantation of HCT116 tumor cells (1 × 10^6 in a volume of 0.5 mL) was performed subcutaneously into two BALB/c nude mice. The first transplantation of the xenograft (50 mg) was performed after 30 days into 2 mice (the 3rd passage was used in vivo). […] Then, in a laminar flow hood, the tumor suspension (0.5 mL, the first passage) was implanted subcutaneously into the flank area of two BALB/c nude mice (males). After a volume of 0.8–1.0 cm^3 was achieved, the nudes were passaged using 4 donor mice to obtain the desired grade and mass of the transplants. […] The tumor nests were mechanistically disintegrated to obtain 10% of the tumor samples, and then the nutrient medium was added. The inoculation was performed using individual sterile plastic syringes (1 mL) equipped with 18G suture needles. The transplantation was carried out bilaterally in the flank areas. Each mouse was inoculated with 0.5 mL (10%) of the tumor suspension (40 mg of the tumor mass for each animal). Prior to inoculation, the animals’ skin was treated with 70% alcohol. Between injections, the Petri dish containing the tumor suspension was tightly covered to avoid any contamination. Before injection, the suspension was vigorously stirred in a syringe. […]

[1] = tested on: p53, PUMA, CASPASE-3 in HCTwt cells; assay: Western blot, p53 and p53-dependent apoptosis proteins; format: cell-based
Experimental: To verify the mechanism of cytotoxic action of the synthesized dispiro-indolinones, Western blot testing of dispiro-indolinone 29 was performed using the p53-expressing HCTwt and LNCaP cell lines. Both the p53 protein and the proteins involved in the p53-dependent process of apoptosis (i.e., BAX, NOXA, and PUMA) were determined. For comparison, similar testing was carried out for a cell line not expressing p53 (HCT^(−/−)).

PC3 cells = assay: MTT cytotoxicity assay, PC3 (p53 neg); format: cell-based; conditions: Homo sapiens, PC-3, 48 h
HCT^−/− cells = assay: MTT cytotoxicity assay, HCT^−/− (p53 neg); format: cell-based; conditions: 48 h
[2] = Solubility in aqueous media (observation); format: physicochemical; conditions: observed in acute toxicity pilot, doses > 2500 mg/kg not feasible
Experimental: To select the doses, the pilot experiments were carried out on a minimum number of animals. […] When administered in large doses during autopsy in the abdominal cavities of the mice, on the inner wall and membranes of the abdominal organs, remnants of the non-absorbed drug were found in the form of white layers, indicating incomplete absorption and insufficient solubility of the agent. […] According to the data obtained from the trial experiment, in the main study—with intraperitoneal administration—a dose of 2500 mg/kg was used.

HCT^wt cells = assay: MTT cytotoxicity assay, HCT^wt (p53 pos); format: cell-based; conditions: 48 h
LNCaP cells = assay: MTT cytotoxicity assay, LNCaP (p53 pos); format: cell-based; conditions: Homo sapiens, LNCaP, 48 h

CCOc1ccc(N2C(=O)C3(NC2=S)C(c2ccc(Cl)cc2)CN(C)C32C(=O)Nc3ccc(Br)cc32)cc1 (stereo not shown) [Compound 29]
autopsy finding (Acute toxicity; 29th day after exposure, intraperitoneal 2500 mg/kg): increase in the liver, with signs of dystrophy | dynamics of body weight (Acute toxicity; intraperitoneal 2500 mg/kg, vs control mice): did not show differences from the control mice | clinical picture of intoxication (Acute toxicity; intraperitoneal, 2500 mg/kg): depressed state, a decrease in motor activity, and the release of porphyrin | time after which symptoms of intoxication disappeared (Acute toxicity; intraperitoneal, 2500 mg/kg): 30 to 60 min | deaths (Acute toxicity; intraperitoneal, 2500 mg/kg, observation 28 days): no deaths were registered | body weight (M ± m) (Acute toxicity; ♀, day 0): 23,8±0,54 grams | body weight (M ± m) (Acute toxicity; ♀, day 7): 24,0±1,25 grams | body weight (M ± m) (Acute toxicity; ♀, day 14): 24,5±0,91 grams | body weight (M ± m) (Acute toxicity; ♀, day 21): 24,0±1,13 grams | body weight (M ± m) (Acute toxicity; ♀, day 29): 25,0±1,18 grams | body weight (M ± m) (Acute toxicity; ♂, day 0): 24,6±0,53 grams | body weight (M ± m) (Acute toxicity; ♂, day 7): 25,2±0,49 grams | body weight (M ± m) (Acute toxicity; ♂, day 14): 26,9±0,58 grams | body weight (M ± m) (Acute toxicity; ♂, day 21): 26,0±0,63 grams | body weight (M ± m) (Acute toxicity; ♂, day 29): 24,1±0,32 grams | T/C (HCT116 tumor xenografts; 1000 mg/kg i.p. o.d. 10 days, after 4 days, p = 0.0007): 44% | T/C (treatment/control) (HCT116 tumor xenografts; sample 1000 mg/kg i.p. o.d. 10 days, after 24 h, p = 0.00005): 25% | concentration / expression of the p53 protein ([1]; HCTwt cell culture, increasing concentration, nutlin-3a 20 µM positive control): slight increase | expression of CASPASE-3 ([1]; Western blot): increase | expression of PUMA ([1]; Western blot): increase | IC50 (PC3 cells): 9.8 ± 3.7 µM | IC50 (HCT^−/− cells): 70.5 ± 15.2 µM | solubility in aqueous media [2]: low solubility | IC50 (HCT^wt cells): 14.1 ± 4.2 µM | IC50 (LNCaP cells): 3.5 ± 1.9 µM
